Data reported in ChEMBL document CHEMBL4196239, “Bromopyrrole Alkaloid Inhibitors of the Proteasome Isolated from a Dictyonella sp. Marine Sponge Collected at the Amazon River Mouth” (J Nat Prod, 2018).

Assay: Inhibition of yeast chymotrypsin-like 20S proteasome using suc-LLVY-AMC as substrate pretreated for 1 hr followed by substrate addition measured every 2 mins for 1 hr by fluorescence assay
Design: species or system Saccharomyces cerevisiae

IC50 [µM] | SMILES
23 | Nc1nc(/C=C/CNC(=O)c2cc(Br)c[nH]2)c[nH]1
69 | NC1=N[C@@]23CCCN2C(=O)c2[nH]cc(Br)c2[C@H]3N1
> 100 | N=C(N)Nc1c2n(c(=O)c3[nH]cc(Br)c13)CCC2
9.2 | N=C1N[C@@H](O)[C@@]2(N1)[C@@H](Cl)[C@H](CN)[C@H]1CN3C(=O)c4ccc(Br)n4[C@@H]4NC(=N)N[C@@]43[C@@H]12
27 | Nc1ncc(/C=C/CNC(=O)c2ccc(Br)[nH]2)[nH]1
> 100 | N=C(N)Nc1c2n(c(=O)c3[nH]c(Br)cc13)CCC2
